Reference: patent US20050100903A1, “Screening method” (priority 2001, published 2005)

How the values were obtained:
[1] = system: CEACAM-1 expression in HT29 cells; assay: Western Blot of CEACAM expression in HT29 colon carcinoma cells; type: cell-based, human; conditions: HT29, 10 ng/ml, 6 hours
Description: HT29 colon carcinoma cells were incubated for 6 hours with TNF-α (10 ng/ml). The cells were examined microscopically for vitality, then lysed, their total protein isolated and separated electrophoretically. 8 μg protein was separated per lane. An anti-CEA antibody and an anti-mouse-HRP-coupled secondary antibody (Dianova, Hamburg, Germany) were used for detection. A cross-reacting anti-CEA antibody was chosen to investigate the selectivity of candidate substances for the expression of individual antigens. The selectivity of the substance effects is important since CEACAM-1 and CEACAM-7/CEA and CEACAM-6 can have antagonistic effects on apoptosis.
The proportionality of expression of individual CEACAMs can be quantified in Western Blot after densitometric evaluation (e.g., public domain NIH software IMAGE 1.6.1). The antigens are identified in the Western Blot through assignment to relative molar mass. The molecular size of the individual CEACAMs is described in the literature. The Western Blot was normalized with β-actin (Sigma-Aldrich, Taufkirchen, Germany). This blot (FIG. 6) was subsequently evaluated densitometrically using the NIH Image Software 1.6.1.
200 nM wortmannin (Calbiochem-Novabiochem, Nottingham, UK) was incubated with 1×10^6 cells/well (6-well plate) for 3, 8 or 24 hours. […]

[2] = system: HT29 cells; assay: Apoptosis in HT29 cells with or without γ-interferon stimulation, with antibody cross-linking; type: cell-based, human; conditions: addition over a short period (500 U/ml, 6 hours)
Description: HT29 cells were treated for 6 hours with 500 U/ml γ-interferon. The procedure was also run without interferon stimulation. After change of medium, the cells were treated with primary antibodies as in Example 4. These were: mAb 4D1C2 (anti-CEACAM-1 at 4 μg/ml) or irrelevant mAb 7D11 (anti-β-catenin at 1 μg/ml). A test run without antibody was used as a second negative control.
After medium change, secondary antibody (anti-mouse at 15 μg/ml) was added. After a total experiment duration of 80-96 hours, the level of apoptosis was determined using standard propidium iodide staining or the apoptosis ELISA of ROCHE Molecule Systems, strictly in accordance with the instructions of the manufacturer. All experiments were performed in triplicate and repeated 3× independently. The Wilcoxon signed ranks test was used to assess the significance of the data.

Substance	Influence on other proteins of the CEACAM family [1]	Upregulation of CEACAM-1 compared to the untreated sample ([1]; densitometry of Western Blot normalized with β-actin)	CEACAM-1 production in HT29 cells [2]
TNF-α	without influencing	approximately 2 fold	
gamma-interferon: gamma-interferon, stimulates HT29 cells to produce CEACAM-1			stimulates
